Results as given in patent US20260055097A9, “NRF2 PROTEIN DEGRADERS” (Ganymede Oncology, Inc., priority 2022, published 2026).

Legend:
A549 = test: Cancer cell viability, A549 (CellTiter-Glo); format: cell-based; conditions: Homo sapiens, 72 h, A549 cells, 3 days, read-out: Cellular IC50 (μM) A549
Method: Representative Compounds of the Disclosure were tested in A549 (Vendor: ATCC; Cat #CCL-185; Description: lung, carcinoma) and/or LK-2 (Vendor: Riken; Cat #RCB1970; Description: lung, squamous cell carcinoma) cellular viability assays according to the following general protocol. • 1. Observed the cells under microscope. • 2. Aspirated the media and added 5 mL trypsin and incubate for 3 mins. • 3. Added 10 mL fresh media and harvested all the cells in to 15 mL tubes. • 4. Centrifuged the cells at 1000 rpm for 5 mins. • 5. Re-suspended the cells with 11 mL media and took 1 mL to determine the cell number and viability. • 6. Prepared cells suspension at 20 K/mL (A549) or 35 K/mL (LK-2) • 7. Seeded the cells into 96-well plate and incubated for overnight. • 8. […] After 3 days, took out the plates from the incubator and observed the cells under microscope. • 10. Passed a film at the bottom of the plates. • 11. Equilibrated the plate and its contents at room temperature for approximately 30 minutes. • 12. Thawed the CellTiter-Glo® Buffer and equilibrated to room temperature prior to use. • 13. Equilibrated the lyophilized CellTiter-Glo® Substrate to room temperature prior to use. • 14. Transferred 100 ml of CellTiter-Glo® Buffer into the amber bottle containing CellTiter-Glo® Substrate to reconstituted the lyophilized enzyme/substrate mixture. • 15. Mixed by gently vortexing, swirling or inverting the contents to obtain a homogeneous solution. • 16. Added 100 μL CellTiter-Glo® Reagent into each well • 17. Mixed contents for 15 minutes on an orbital shaker to induce cell lysis. • 18. Recorded luminescence with EnSpire machine. • 19. Passed the raw data into the file and analyzed the data with XLfit software.

LK-2 = test: Cancer cell viability, LK-2 (CellTiter-Glo); format: cell-based; conditions: Homo sapiens, LK-2, 72 h, LK-2 cells, 3 days, read-out: Cellular IC50 (μM) LK-2
Method: Representative Compounds of the Disclosure were tested in A549 (Vendor: ATCC; Cat #CCL-185; Description: lung, carcinoma) and/or LK-2 (Vendor: Riken; Cat #RCB1970; Description: lung, squamous cell carcinoma) cellular viability assays according to the following general protocol. • 1. Observed the cells under microscope. • 2. Aspirated the media and added 5 mL trypsin and incubate for 3 mins. • 3. Added 10 mL fresh media and harvested all the cells in to 15 mL tubes. • 4. Centrifuged the cells at 1000 rpm for 5 mins. • 5. Re-suspended the cells with 11 mL media and took 1 mL to determine the cell number and viability. • 6. Prepared cells suspension at 20 K/mL (A549) or 35 K/mL (LK-2) • 7. Seeded the cells into 96-well plate and incubated for overnight. • 8. Added compounds into each well with a HPD300 machine (nine three-fold dilutions typically starting at 30 µM final concentration) and incubated for 3 days. • 9. After 3 days, took out the plates from the incubator and observed the cells under microscope. • 10. Passed a film at the bottom of the plates. • 11. Equilibrated the plate and its contents at room temperature for approximately 30 minutes. • 12. Thawed the CellTiter-Glo® Buffer and equilibrated to room temperature prior to use. • 13. Equilibrated the lyophilized CellTiter-Glo® Substrate to room temperature prior to use. • 14. Transferred 100 ml of CellTiter-Glo® Buffer into the amber bottle containing CellTiter-Glo® Substrate to reconstituted the lyophilized enzyme/substrate mixture. • 15. Mixed by gently vortexing, swirling or inverting the contents to obtain a homogeneous solution. • 16. Added 100 μL CellTiter-Glo® Reagent into each well • 17. Mixed contents for 15 minutes on an orbital shaker to induce cell lysis. • 18. Recorded luminescence with EnSpire machine. • 19. Passed the raw data into the file and analyzed the data with XLfit software.

IC50 (A549) [µM]	IC50 (LK-2) [µM]	SMILES
0.09	0.02	Cc1sc(NC(=O)Cc2cccc(OCCOCCNc3ccc4c(c3)C(=O)N(C3CCC(=O)NC3=O)C4=O)c2)nc1-c1ccc2c(c1)CCN2C(=O)c1cncn1C (stereo not drawn) [Cpd. No. 23, 2-(3-(2-(2-((2-(2,6-dioxopiperidin-3-yl)-1,3-dioxoisoindolin-5-yl)amino)ethoxy)ethoxy)phenyl)-N-(5-methyl-4-(1-(1-methyl-1H-imidazole-5-carbonyl)indolin-5-yl)thiazol-2-yl)acetamide]
0.2	0.04	Cc1sc(C(=O)NCc2cccc(OCCOCCNc3ccc4c(c3)C(=O)N(C3CCC(=O)NC3=O)C4=O)c2)nc1-c1ccc2c(c1)CCN2C(=O)C1CC1 (stereo not drawn) [Cpd. No. 38, 4-(1-(cyclopropanecarbonyl)indolin-5-yl)-N-(3-(2-(2-((2-(2,6-dioxopiperidin-3-yl)-1,3-dioxoisoindolin-5-yl)amino)ethoxy)ethoxy)benzyl)-5-methylthiazole-2-carboxamide]
> 30	> 30	Cc1ccccc1C(=O)N1CCc2cc(-c3nc(NC(=O)Cc4cccc(OCCCN5CCN(c6ccc7c(c6)C(=O)N(C6CCC(=O)NC6=O)C7=O)CC5)c4)sc3C)ccc21 (stereo not drawn) [compound 25, 2-(3-(3-(4-(2-(2,6-dioxopiperidin-3-yl)-1,3-dioxoisoindolin-5-yl)piperazin-1-yl)propoxy)phenyl)-N-(5-methyl-4-(1-(2-methylbenzoyl)indolin-5-yl)thiazol-2-yl)acetamide]

Continued, compound first:

SMILES	IC50 (A549) [µM]	IC50 (LK-2) [µM]
Cc1ccccc1C(=O)N1CCc2cc(-c3nc(NC(=O)Cc4cccc(OCCCCN5CCN(c6ccc7c(c6)C(=O)N(C6CCC(=O)NC6=O)C7=O)CC5)c4)sc3C)ccc21 (stereo not drawn) [Cpd. No. 26, 2-(3-(4-(4-(2-(2,6-dioxopiperidin-3-yl)-1,3-dioxoisoindolin-5-yl)piperazin-1-yl)butoxy)phenyl)-N-(5-methyl-4-(1-(2-methylbenzoyl)indolin-5-yl)thiazol-2-yl)acetamide]	> 30	0.8
Cc1ccccc1C(=O)N1CCc2cc(-c3nc(NC(=O)Cc4cccc(OCCCCN5CCN(c6cccc7c6C(=O)N(C6CCC(=O)NC6=O)C7=O)CC5)c4)sc3C)ccc21 (stereo not drawn) [Cpd. No. 33, 2-(3-(4-(4-(2-(2,6-dioxopiperidin-3-yl)-1,3-dioxoisoindolin-4-yl)piperazin-1-yl)butoxy)phenyl)-N-(5-methyl-4-(1-(2-methylbenzoyl)indolin-5-yl)thiazol-2-yl)acetamide]	> 30	> 30
Cc1sc(C(=O)Nc2cccc(OCCOCCNc3ccc4c(c3)C(=O)N(C3CCC(=O)NC3=O)C4=O)c2)nc1-c1ccc2c(c1)CCN2C(=O)C1CC1 (stereo not drawn) [Cpd. No. 39, 4-(1-(cyclopropanecarbonyl)indolin-5-yl)-N-(3-(2-(2-((2-(2,6-dioxopiperidin-3-yl)-1,3-dioxoisoindolin-5-yl)amino)ethoxy)ethoxy)phenyl)-5-methylthiazole-2-carboxamide]	> 30	> 30
